This note sets out measurements from patent publication US10165779B2, “Substituted pyrazolylpyrazole derivative and use of same as herbicide” (KYOYU AGRI CO., LTD., priority 2015, dated 2019).

Holding throughout (format): in vivo
For one series, the system named is Galinsoga parviflora. The experiment in a line: Weed foliar treatment test (Test 4, 4.0 to 5.0 leaf stage). The following applies: 10 g a.i./10a; foliar spray at 4.0 to 5.0 leaf stage of Digitaria ciliaris; 20 days. The method, then:
(§1) Field soil was filled into a 1/4500 are pot followed by seeding with Digitaria ciliaris and Galinsoga parviflora, covering with soil and cultivating in a glass greenhouse at an average atmospheric temperature of 25° C.
(§2) Wettable powders of Target Compound (I) shown in Table 1 prepared in compliance with the preparation examples were diluted with water to the prescribed amount of chemical and uniformly sprayed onto the weeds using 100 liters of sprayed water per 10 are when Digitaria ciliaris had grown to the 4.0 to 5.0 leaf stage (plant height: 10 cm to 15 cm).
(§3) After treating for 20 days in a glass greenhouse at an average atmospheric temperature of 25° C., the herbicidal efficacy thereof was investigated.
(§4) Evaluation of herbicidal efficacy was carried out in the same manner as the above-mentioned Test Example 1.

Series [1] deals with Digitaria ciliaris. The series is described as above. Particulars: 10 g a.i./10a; foliar spray at 4.0 to 5.0 leaf stage of Digitaria ciliaris (plant height 10 cm to 15 cm); 20 days. The method, then: as §1, §2, §3, §4
For the next series, the system named is Oryza sativa. The experiment in a line: Paddy herbicidal activity test, phytotoxicity to transplanted rice. The following applies: rice transplanted at 2.0 leaf stage, 30 days. The method, then:
(§5) After treating for 30 days in a glass greenhouse at an average atmospheric temperature of 30° C., the herbicidal efficacy thereof was investigated. Evaluation of herbicidal efficacy was carried out by comparing growth inhibition rate (%) with an untreated group, while evaluation of phytotoxicity was carried out by comparing growth inhibition rate (%) with the state of a complete eradication group, and were evaluated at 11 levels indicated below. […] 2: 20% to less than 30% 3: 30% to less than 40% 4: 40% to less than 50% 5: 50% to less than 60% 6: 60% to less than 70% 7: 70% to less than 80% […]

Series [2] has as its system Amaranthus retroflexus. The experiment in a line: Farming soil treatment test. The following applies: soil surface spray prior to weed growth, 30 days. The method, then:
(§6) Field soil was filled into a 1/6000 are pot followed by seeding with Digitaria cilaris, Chenopodium album and Amaranthus retroflexus and covering with soil.
(§7) Wettable powders of compounds of formula (I) shown in Table 1 prepared in compliance with the preparation examples were diluted. with water to the prescribed amount of chemical and uniformly sprayed onto each soil surface layer using 100 liters of sprayed water per 10 are prior to weed growth following seeding.
(§8) After treating for 30 days in a glass greenhouse at an average atmospheric temperature of 30° C., the herbicidal efficacy thereof was investigated.
as §4

Series [3] has as its system Chenopodium album. Put plainly: Farming soil treatment test. Particulars: soil surface spray prior to weed growth, 30 days. The method, then:
as §6, §7, §8, §4

The test system of series [4] is Digitaria ciliaris. Put plainly: Farming soil treatment test. The following applies: soil surface spray prior to weed growth, 30 days. The method, then:
as §6, §7, §8, §4

Another series concerns Monochoria vaginalis. The experiment in a line: Paddy herbicidal activity test. The following applies: irrigated paddy pot, 30 days. The method, then:
as §5

Another series relates to Echinochloa crus-galli. Put plainly: Paddy herbicidal activity test. The following applies: irrigated paddy pot, treated at 3.5 leaf stage of Echinochloa crus-galli, 30 days. The method, then: as §5
The next series concerns Scirpus juncoides. Put plainly: Paddy herbicidal activity test. Particulars: irrigated paddy pot, 30 days. The method, then: as §5
The test system of series [5] is Amaranthus retroflexus. The experiment in a line: Weed foliar treatment test (Test 3, 1.0 to 2.0 leaf stage). Particulars: foliar spray at 1.0 to 2.0 leaf stage of Digitaria ciliaris, 3 weeks. The method, then:
(§9) Soil was filled into a 1/6000 are pot followed by seeding with Digitaria ciliaris, Chenopodium album and Amaranthus retroflexus, covering with soil, and cultivating in a glass greenhouse at an average atmospheric temperature of 25° C.
(§10) Wettable powders of Target Compound (I) shown in Table 1 prepared in compliance with the preparation examples were diluted with water to the prescribed amount of chemical and uniformly sprayed onto the weeds using 150 liters of sprayed water per 10 are when Digitaria ciliaris had grown to the 1.0 to 2.0 leaf stage.
(§11) After treating for 3 weeks in a glass greenhouse at an average atmospheric temperature of 25° C., the herbicidal efficacy thereof was investigated.
as §4

Series [6] concerns Chenopodium album. The description is as above. Particulars: foliar spray at 1.0 to 2.0 leaf stage of Digitaria ciliaris, 3 weeks. The method, then: as §9, §10, §11, §4
Series [7] relates to Digitaria ciliaris. The description is as above. Particulars: foliar spray at 1.0 to 2.0 leaf stage of Digitaria ciliaris, 3 weeks. The method, then:
as §9, §10, §11, §4

Turning to `CCOC(=O)N(C(=O)OCC)c1c(C#N)cnn1-c1nn2c(c1Cl)CCCC2` [Compound 6], in the series with Galinsoga parviflora, the “herbicidal efficacy Galinsoga parviflora” value is on record as 10 (10: 100%). Also, the “herbicidal efficacy Digitaria ciliaris” value in the series with Digitaria ciliaris [1], in the series on Digitaria ciliaris [4] (5g a.i./10a), in the series on Digitaria ciliaris [4] (10g a.i./10a), with Digitaria ciliaris [7] (5g a.i./10a) and in the series with Digitaria ciliaris [7] (10g a.i./10a) was 10 (10: 100%) in each case. The “phytotoxicity Oryza sativa” value with Oryza sativa (1g a.i./10a) is listed as 0 (0 (exponent): 0% to less than 10% (growth inhibition rate)); in the series on Oryza sativa (5g a.i./10a), 1 (1: 10% to less than 20%). For the same compound, the “herbicidal efficacy Amaranthus retroflexus” value in the series on Amaranthus retroflexus [2] (5g a.i./10a), with Amaranthus retroflexus [2] (10g a.i./10a), in the series with Amaranthus retroflexus [5] (5g a.i./10a) and with Amaranthus retroflexus [5] (10g a.i./10a) was 10 (10: 100%) in each case. Moreover, the “herbicidal efficacy Chenopodium album” value was 9 (9: 90% to less than 100%) with Chenopodium album [3] (5g a.i./10a), 10 (10: 100%) in the series with Chenopodium album [3] (10g a.i./10a), 10 (10: 100%) with Chenopodium album [6] (5g a.i./10a) and 10 (10: 100%) in the series with Chenopodium album [6] (10g a.i./10a). The “herbicidal efficacy Monochoria vaginalis” value in the series with Monochoria vaginalis (1g a.i./10a) and in the series on Monochoria vaginalis (5g a.i./10a) was 10 (10: 100%) in each case. Also, the “herbicidal efficacy Echinochloa crus-galli” value with Echinochloa crus-galli (1g a.i./10a) and with Echinochloa crus-galli (5g a.i./10a) was 10 (10: 100%) each time. Besides, the figures for the “herbicidal efficacy Scirpus juncoides” value in the series on Scirpus juncoides (1g a.i./10a) and in the series with Scirpus juncoides (5g a.i./10a) were 9 (9: 90% to less than 100%) and 10 (10: 100%), respectively.
Regarding `CCOC(=O)N(C(=O)OCC)c1c(C#N)cnn1-c1nn2c(c1Br)CCCC2` [Compound 8], in the series on Galinsoga parviflora, the “herbicidal efficacy Galinsoga parviflora” value was 10 (10: 100%). Also, the “herbicidal efficacy Digitaria ciliaris” value in the series with Digitaria ciliaris [1], with Digitaria ciliaris [4] (5g a.i./10a), with Digitaria ciliaris [4] (10g a.i./10a), in the series with Digitaria ciliaris [7] (5g a.i./10a) and in the series on Digitaria ciliaris [7] (10g a.i./10a) was 10 (10: 100%) in each case. Moreover, the figures for the “phytotoxicity Oryza sativa” value with Oryza sativa (1g a.i./10a) and with Oryza sativa (5g a.i./10a) were 0 (0 (exponent): 0% to less than 10% (growth inhibition rate)) and 1 (1: 10% to less than 20%), respectively. The “herbicidal efficacy Amaranthus retroflexus” value in the series on Amaranthus retroflexus [2] (5g a.i./10a), in the series on Amaranthus retroflexus [2] (10g a.i./10a), with Amaranthus retroflexus [5] (5g a.i./10a) and with Amaranthus retroflexus [5] (10g a.i./10a) was 10 (10: 100%) each time. Moreover, the “herbicidal efficacy Chenopodium album” value with Chenopodium album [3] (5g a.i./10a) was 9 (9: 90% to less than 100%); with Chenopodium album [3] (10g a.i./10a) it was 9 (9: 90% to less than 100%); with Chenopodium album [6] (5g a.i./10a) it was 10 (10: 100%); in the series on Chenopodium album [6] (10g a.i./10a), 10 (10: 100%). Also, the “herbicidal efficacy Monochoria vaginalis” value in the series with Monochoria vaginalis (1g a.i./10a) and in the series on Monochoria vaginalis (5g a.i./10a) was 10 (10: 100%) throughout. Moreover, the “herbicidal efficacy Echinochloa crus-galli” value in the series with Echinochloa crus-galli (1g a.i./10a) and in the series on Echinochloa crus-galli (5g a.i./10a) was 10 (10: 100%) each time. Moreover, the “herbicidal efficacy Scirpus juncoides” value with Scirpus juncoides (1g a.i./10a) and with Scirpus juncoides (5g a.i./10a) was 9 (9: 90% to less than 100%) in each case.
Take `C=CCOC(=O)N(C(=O)OCC=C)c1c(C#N)cnn1-c1nn2c(c1Cl)CCCC2` [Compound 14]: in the series with Galinsoga parviflora, the “herbicidal efficacy Galinsoga parviflora” value is listed as 10 (10: 100%). Moreover, the “herbicidal efficacy Digitaria ciliaris” value with Digitaria ciliaris [1], with Digitaria ciliaris [4] (5g a.i./10a), in the series on Digitaria ciliaris [4] (10g a.i./10a), in the series with Digitaria ciliaris [7] (5g a.i./10a) and with Digitaria ciliaris [7] (10g a.i./10a) was 10 (10: 100%) each time. In addition, the “phytotoxicity Oryza sativa” value in the series with Oryza sativa (1g a.i./10a) and in the series with Oryza sativa (5g a.i./10a) was 1 (1: 10% to less than 20%) each time. Besides, the “herbicidal efficacy Amaranthus retroflexus” value in the series with Amaranthus retroflexus [2] (5g a.i./10a), in the series with Amaranthus retroflexus [2] (10g a.i./10a), with Amaranthus retroflexus [5] (5g a.i./10a) and in the series on Amaranthus retroflexus [5] (10g a.i./10a) was 10 (10: 100%) in each case. The “herbicidal efficacy Chenopodium album” value is listed as 9 (9: 90% to less than 100%) with Chenopodium album [3] (5g a.i./10a), 10 (10: 100%) with Chenopodium album [3] (10g a.i./10a), 10 (10: 100%) in the series on Chenopodium album [6] (5g a.i./10a) and 10 (10: 100%) in the series on Chenopodium album [6] (10g a.i./10a). Moreover, the “herbicidal efficacy Monochoria vaginalis” value in the series on Monochoria vaginalis (1g a.i./10a) and in the series on Monochoria vaginalis (5g a.i./10a) was 10 (10: 100%) each time. Also, the “herbicidal efficacy Echinochloa crus-galli” value in the series with Echinochloa crus-galli (1g a.i./10a) and in the series with Echinochloa crus-galli (5g a.i./10a) was 10 (10: 100%) throughout. In addition, the “herbicidal efficacy Scirpus juncoides” value is on record as 9 (9: 90% to less than 100%) in the series with Scirpus juncoides (1g a.i./10a) and 10 (10: 100%) with Scirpus juncoides (5g a.i./10a).
